Test results from PubChem BioAssay (NCI).
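Five compound concentrations were applied to cells in 96-well plates for 48 hours; endpoints were derived by simple linear interpolation of the resulting dose-response curve. GI50: concentration for 50% inhibition of growth. TGI marks complete inhibition of growth.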

Experiments:
Test in all cases: NCI-60 cell line screen, 48 h
A549 NSCLC = system: A549 NSCLC
CCRF-CEM leukemia = system: CCRF-CEM leukemia
IGROV1 ovarian = system: IGROV1 ovarian
K-562 leukemia = system: K-562 leukemia
MDA-MB-435 = system: MDA-MB-435
OVCAR-8 ovarian = system: OVCAR-8 ovarian
SK-MEL-2 melanoma = system: SK-MEL-2 melanoma
SK-MEL-5 melanoma = system: SK-MEL-5 melanoma
T-47D breast = system: T-47D breast
UACC-257 melanoma = system: UACC-257 melanoma

Compound	TGI (A549 NSCLC)	TGI (CCRF-CEM leukemia)	TGI (IGROV1 ovarian)	TGI (K-562 leukemia)	TGI (MDA-MB-435)	TGI (OVCAR-8 ovarian)	TGI (SK-MEL-2 melanoma)	TGI (SK-MEL-5 melanoma)	TGI (T-47D breast)	TGI (UACC-257 melanoma)	GI50 (A549 NSCLC)	GI50 (CCRF-CEM leukemia)	GI50 (IGROV1 ovarian)	GI50 (K-562 leukemia)	GI50 (MDA-MB-435)	GI50 (OVCAR-8 ovarian)	GI50 (SK-MEL-2 melanoma)	GI50 (SK-MEL-5 melanoma)	GI50 (T-47D breast)	GI50 (UACC-257 melanoma)
c1ccc(-c2cn3c(nc4ccccc43)c(-c3ccccc3)n2)cc1	> 100 µM	> 100 µM	> 100 µM	> 100 µM	> 100 µM	40.3 µM	> 62.5 µM	> 100 µM	> 71.3 µM	> 100 µM										
O=C(O)COCC(=O)N(CCOCCN(Cc1ccccc1)C(=O)COCC(=O)O)Cc1ccccc1	> 100 µM	> 100 µM	> 100 µM	> 100 µM	> 100 µM	> 100 µM	> 100 µM	> 100 µM	> 100 µM	> 100 µM										
COC1(C)CP(=O)(OC(C)C)CC(C)=C1Cl (stereo not given)	> 100 µM	15.7 µM	29.6 µM	7.89 µM	> 100 µM	> 100 µM	45.9 µM	26.6 µM	55.6 µM	72.1 µM										
Nc1cccnc1NCC1(CO)CCCC1	> 100 µM	> 100 µM	> 100 µM	> 100 µM	> 100 µM	> 100 µM	> 100 µM	> 100 µM	> 100 µM	> 100 µM										
CC(=O)c1sc2c(c1OC(=O)c1ccco1)c(=O)n(-c1ccccc1)c(=S)n2-c1ccccc1	> 100 µM	43.5 µM	54.2 µM	> 100 µM	61.7 µM	> 100 µM	39.2 µM	18.9 µM	36.4 µM	88.7 µM										
OCCCNc1nc(=S)[nH]c2[nH]ncc12	> 100 µM	> 100 µM	> 100 µM	> 100 µM	> 100 µM	> 100 µM	> 100 µM	> 100 µM	> 100 µM	> 100 µM	44.7 µM	34.7 µM	29.9 µM	44.5 µM	45.5 µM	37.8 µM	53.2 µM	31.3 µM	45 µM	68 µM
OC1(c2ccc(Cl)cc2)C(N2CCCC2)c2ccccc2C2=NCCN21 (stereo not given)	> 100 µM	> 100 µM	52.7 µM	47.5 µM	86.7 µM	58.8 µM	45 µM	28.4 µM	41 µM	40.6 µM										
C[N+](C)(C)CCCSc1nc2ccccc2[nH]1	> 100 µM	> 100 µM	> 100 µM	> 100 µM	> 100 µM	> 100 µM	> 100 µM	> 100 µM	> 100 µM	> 100 µM										
COC(=O)C1=C(O)C(C(=O)OC)[C@]2(O)[C@H](C(=O)OC)[C@H]1C[C@@H](c1ccc(OC)c(OC)c1)[C@H]2C(=O)OC (stereo not given in full)	54.4 µM	> 100 µM	> 100 µM	77.3 µM	44.2 µM	31.1 µM	99.4 µM	> 100 µM	> 100 µM	> 100 µM										
Ic1ccc2c(c1)N(c1ccccc1)c1cc(N=c3ccc4nc5ccc(I)cc5n(-c5ccccc5)c-4c3)ccc1N2	> 100 µM	> 100 µM	> 100 µM	> 100 µM	94 µM	> 100 µM	> 100 µM	> 100 µM	> 100 µM	> 100 µM										
CCOC(=O)C1(Cc2ccccc2)C=CN(C(=O)c2ccccc2)C=C1	> 100 µM	61.5 µM	> 100 µM	> 100 µM	90.5 µM	> 100 µM	49.6 µM	29.8 µM	78.8 µM	51.1 µM										
C/C(Cl)=N/OC(=O)Nc1ccc(S(N)(=O)=O)c(C)c1	38.3 µM	3.99 µM	33.4 µM	3.35 µM	29.6 µM	> 56.2 µM	33.5 µM	26.1 µM	9.98 µM	27.9 µM										
O=C1c2[nH]c3ccc(Br)cc3c2CCN1Cc1ccc(Cl)cc1	26.9 µM	> 100 µM	35.5 µM	> 100 µM	28.6 µM	48.5 µM	47.4 µM	23 µM	29.2 µM	30 µM										
COc1ccc2c(c1)-c1nc(=S)n(CCCN(C)C)c3ccc([N+](=O)[O-])c(c13)N2	14.8 µM	1.41 µM	2.41 µM	3.04 µM	16.7 µM	6.5 µM	31.6 µM	10.1 µM	40.8 µM	3.6 µM										
Cc1cc(S(=O)(=O)Nc2nc(N)n(-c3ccccn3)n2)c(S)cc1Cl	> 100 µM	> 100 µM	> 100 µM	> 100 µM	> 100 µM	> 100 µM	> 100 µM	> 100 µM	> 100 µM	> 100 µM										
